Assay results taken from US20260209152A1, “Substituted Hydroxystilbene Compounds and Derivatives, Synthesis and Uses Thereof” (Kynan Duke IP, LLC, priority 2019, published 2026).
Read-outs that look alike come from different tables or passages of the source. Blank lines part the entries; values can stand above or below the compound they belong to.

Columns and labels:
Assay in all cases: CellTiter Glo cell viability assay
Assay type in all cases: cell-based, human
Lung A549 = details: for IC50: Homo sapiens, A549, 72 h, 3 Days of treatment, 18 2-fold dilutions 5-0.00003 μM
How it was run: (§1)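 Cells seeded at 1.7*10^3/well in quadruplicate; compounds at 18 two-fold dilutions from 5 μM (0.000038146-5 μM), or at 1, 2, 5, 10 and 20 μM. CellTiter Glo luminescence read on days 1, 3 and 5 after treatment. IC50 by nonlinear regression of luminescence versus log dose.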

Liver SNU-475 = details: for IC50: Homo sapiens, SNU-475, 72 h, 3 Days of treatment, 18 2-fold dilutions 5-0.00003 μM
How it was run: as §1

Osteosarcomas KHOS_312H = details: for IC50: Homo sapiens, 72 h, 3 Days of treatment, 18 2-fold dilutions 5-0.00003 μM
How it was run: as §1

Rhabomyosarcoma Hs 729 = details: for IC50: Homo sapiens, 72 h, 3 Days of treatment, 18 2-fold dilutions 5-0.00003 μM
How it was run: as §1

Bladder TCCSUP = details: for IC50: Homo sapiens, TCC-SUP, 72 h, 3 Days of treatment, 18 2-fold dilutions 5-0.00003 μM
How it was run: as §1

Bladder UMUC-14 = details: for IC50: Homo sapiens, UMUC14, 72 h, 3 Days of treatment, 18 2-fold dilutions 5-0.00003 μM
How it was run: as §1

Breast MDA-MB-231 = details: for IC50: Homo sapiens
How it was run: as §1

Osteosarcomas SJSA_1 = details: for IC50: Homo sapiens, SJSA-1, 72 h, 3 Days of treatment, 18 2-fold dilutions 5-0.00003 μM
How it was run: as §1

Lung BEAS-2B = details: for IC50: Homo sapiens, BEAS-2B, 72 h, 3 Days of treatment, 18 2-fold dilutions 5-0.00003 μM
How it was run: as §1

[1] = test system: Connective Tissue Sarcoma HT-1080; details: for IC50: Homo sapiens, HT-1080, 72 h, 3 Days of treatment, 18 2-fold dilutions 5-0.00003 μM
How it was run: as §1

Rhabomyosarcoma CCL 166 = details: for IC50: Homo sapiens, 72 h, 3 Days of treatment, 18 2-fold dilutions 5-0.00003 μM
How it was run: as §1

Osteosarcomas MG3 = details: for IC50: Homo sapiens, 72 h, 3 Days of treatment, 18 2-fold dilutions 5-0.00003 μM
How it was run: as §1

Osteosarcomas U2OS = details: for IC50: Homo sapiens, U2OS, 72 h, 3 Days of treatment, 18 2-fold dilutions 5-0.00003 μM
How it was run: as §1

Pancreatic CAPAN-1 = details: for IC50: Homo sapiens, CAPAN-1, 72 h, 18 2-fold dilutions 5-0.00003 μM
How it was run: as §1

Liver Huh7 = details: for IC50: Homo sapiens, Huh-7, 72 h, 3 Days of treatment, 18 2-fold dilutions 5-0.00003 μM
How it was run: as §1

Bladder SW780 = details: for IC50: Homo sapiens, SW780, 72 h, 3 Days of treatment, 18 2-fold dilutions 5-0.00003 μM
How it was run: as §1

[2] = test system: Connective Tissue Sarcoma TE 381.T; details: for IC50: Homo sapiens, TE 381.T, 72 h, 3 Days of treatment, 18 2-fold dilutions 5-0.00003 μM
How it was run: as §1

Bladder RT-112 = details: for IC50: Homo sapiens
How it was run: as §1

Lung NCI-H1048 = details: for IC50: Homo sapiens, NCI-H1048, 72 h, 3 Days of treatment, 18 2-fold dilutions 5-0.00003 μM
How it was run: as §1

Leiomyosarcoma SK-UT-1B = details: for IC50: Homo sapiens, Skut1B, 72 h, 3 Days of treatment, 18 2-fold dilutions 5-0.00003 μM
How it was run: as §1

Lung NCI-H1299 = details: for IC50: Homo sapiens, NCI-H1299, 72 h, 18 2-fold dilutions 5-0.00003 μM
How it was run: as §1

[3] = MDA-MB-231, 72 h, 3 Days of treatment, 18 2-fold dilutions 5-0.00003 μM, read-out: Average IC50
[4] = MDA-MB-231, 120 h, Day 5 upon drug treatment, 10 dosages 0.0001-20 μM (Compound 8: 18 dosages 0.000038146 to 5 μM), read-out: IC50
[5] = 3 Days of treatment, read-out: Average IC50
[6] = Table 4: 3 Days of treatment, Average (1, 8) or single Exp A-D, read-out: IC50
[7] = RT-112, 72 h, 3 Days of treatment, 18 2-fold dilutions 5-0.00003 μM, read-out: Average IC50
[8] = RT-112, 72 h, Table 4: 3 Days of treatment, 18 2-fold dilutions 5-0.00003 μM, Average (1, 8) or single Exp A-D, read-out: IC50
[9] = RT-112, 120 h, Day 5 upon drug treatment, 10 dosages 0.0001-20 μM (Compound 8: 18 dosages 0.000038146 to 5 μM), read-out: IC50
[10] = IC50 of 1 [KYN-001] vs 8 [KYN-119], 3 Days

IC50 (Lung A549): 163 nM | IC50 (Liver SNU-475): 239 nM | IC50 (Rhabomyosarcoma Hs 729): 383 nM | IC50 (Breast MDA-MB-231; [3]): 32.6 nM | IC50 (Breast MDA-MB-231; MDA-MB-231, 72 h, Day 3 upon drug treatment, 10 dosages 0.0001-20 μM, read-out: IC50): 29.3 nM | IC50 (Breast MDA-MB-231; [4]): 57.3 nM | IC50 (Osteosarcomas SJSA_1): 2.3 µM | IC50 [1]: 36.7 nM | IC50 (Rhabomyosarcoma CCL 166): 96 nM | IC50 (Osteosarcomas U2OS): 325 nM | IC50 (Liver Huh7): 78.9 nM | IC50 (Bladder SW780): 712 nM | IC50 [2]: 35.7 nM | IC50 (Lung NCI-H1048): 91.7 nM | IC50 (Leiomyosarcoma SK-UT-1B): 22.6 nM | IC50 (Lung NCI-H1299; [5]): 62.4 nM | IC50 (Lung NCI-H1299; [6]): 64.2 nM
SMILES: COc1cc(/C=C/c2cc(O)cc(OC)c2CC=C(C)C)ccc1O [Compound 1, (E)-3-(4-hydroxy-3-methoxystyryl)-5-methoxy-4-(3-methylbut-2-en-1-yl)phenol]
IC50 (Osteosarcomas KHOS_312H): 356 nM | IC50 (Bladder TCCSUP): 294 nM | IC50 (Bladder UMUC-14): 1160 nM | IC50 (Lung BEAS-2B): 76.4 nM | IC50 (Osteosarcomas MG3): 35.9 nM | IC50 (Pancreatic CAPAN-1; [5]): 6.22 µM | IC50 (Pancreatic CAPAN-1; [6]): 1.46 µM | IC50 (Bladder RT-112; [7]): 52.9 nM | IC50 (Bladder RT-112; RT-112, 72 h, Day 3 upon drug treatment, 10 dosages 0.0001-20 μM, read-out: IC50): 105 nM | IC50 (Bladder RT-112; [8]): 27 nM | IC50 (Bladder RT-112; [9]): 28.7 nM

IC50 (Lung A549): 30.9 nM | Fold IC50 (Lung A549; [10]): 5.3 | IC50 (Liver SNU-475): 32.4 nM | Fold IC50 (Liver SNU-475; [10]): 7.4 | IC50 (Rhabomyosarcoma Hs 729): 64.9 nM | Fold IC50 (Rhabomyosarcoma Hs 729; [10]): 5.9 | IC50 (Breast MDA-MB-231; [3]): 8.48 nM | IC50 (Breast MDA-MB-231; [4]): ~0.00253 nM | Fold IC50 (Breast MDA-MB-231; [10]): 3.8 | IC50 (Osteosarcomas SJSA_1): 9.58 µM | Fold IC50 (Osteosarcomas SJSA_1; [10]): 0.2 | IC50 [1]: 17.3 nM | Fold IC50 [1, 10]: 2.1 | IC50 (Rhabomyosarcoma CCL 166): 6.05 nM | Fold IC50 (Rhabomyosarcoma CCL 166; [10]): 16 | IC50 (Osteosarcomas U2OS): 36.8 nM | Fold IC50 (Osteosarcomas U2OS; [10]): 8.8 | IC50 (Liver Huh7): 20.6 nM | Fold IC50 (Liver Huh7; [10]): 3.8 | IC50 (Bladder SW780): 217 nM | Fold IC50 (Bladder SW780; [10]): 3.3 | IC50 [2]: 7.5 nM | Fold IC50 [2, 10]: 4.8 | IC50 (Lung NCI-H1048): 14.5 nM | Fold IC50 (Lung NCI-H1048; [10]): 6.3 | IC50 (Leiomyosarcoma SK-UT-1B): 6.39 nM | Fold IC50 (Leiomyosarcoma SK-UT-1B; [10]): 3.5 | IC50 (Lung NCI-H1299; [5]): 8.56 nM | IC50 (Lung NCI-H1299; [6]): 8.56 nM | Fold IC50 (Lung NCI-H1299; [10]): 7.3
SMILES: CCOc1cc(O)cc(/C=C/c2ccc(O)c(OC)c2)c1CC=C(C)C [Compound 8, (E)-3-Ethoxy-5-(4-hydroxy-3-methoxystyryl)-4-(3-methylbut-2-en-1-yl)phenol]
IC50 (Osteosarcomas KHOS_312H): 36.7 nM | Fold IC50 (Osteosarcomas KHOS_312H; [10]): 9.7 | IC50 (Bladder TCCSUP): 112 nM | Fold IC50 (Bladder TCCSUP; [10]): 2.6 | IC50 (Bladder UMUC-14): 563 nM | Fold IC50 (Bladder UMUC-14; [10]): 2.1 | IC50 (Lung BEAS-2B): 15 nM | Fold IC50 (Lung BEAS-2B; [10]): 5.1 | IC50 (Osteosarcomas MG3): 6.88 nM | Fold IC50 (Osteosarcomas MG3; [10]): 5.2 | IC50 (Pancreatic CAPAN-1; [5]): 4.69 µM | IC50 (Pancreatic CAPAN-1; [6]): 2.45 µM | Fold IC50 (Pancreatic CAPAN-1; [10]): 1.3 | IC50 (Bladder RT-112; [7]): 3.63 nM | IC50 (Bladder RT-112; [8]): 4.09 nM | IC50 (Bladder RT-112; [9]): ~5.65 nM | Fold IC50 (Bladder RT-112; [10]): 15
